From patent publication US20080227713A1, “Oxidized Human Bnp” (priority 2005, published 2008)
Marks after values point to notes of the source that are not given here.

Experiments:
[1] = Plasma peptide levels (EIA) during dose-escalating continuous intravenous infusion in conscious rabbits; format: in vivo; conditions: rabbit; for Plasma steady state concentration: n = 6
Description: (§1) New Zealand White male rabbits (R & R Rabbitry, WA) weighing 2.5 to 3.0 kg, were used in the study. Upon receipt, the animals were allowed a 1-week acclimation period at the animal facility to ensure proper health status prior to the study. On the day of the study, the rabbits were weighed and placed in an open top plexiglass restrainers with adjustable plexiglass and nylon covers. The ears were shaved, 2% Lidocaine HCl (Xylocalne jelly, Astra, Westborough, Mass.) was applied topically on the surface of the ears, and IV catheters (Angiocath, Becton Dickinson, Utah) fitted with heparin locks were inserted into the intermedial branch of the peripheral ear vein for drug administration and into the central ear artery for repeated blood sampling.
(§2) Blood samples were drawn 20 minutes prior to and 0, 50, 55, 60, 110, 115, 120, 170, 175, and 180 minutes following initiation of the infusion. […] Blood samples were taken at 20 minutes prior to dosing, immediately prior to dosing and 5, 10, 15, 30, 60, and 90 minutes after dosing. Blood samples (3 mL) was drawn at each time point and the volume replaced with an equal volume of 0.9% NaCl. Blood was collected into EDTA coated tubes containing aprotinin (150 kallikrein inhibitory units/tube) and centrifuged immediately.
(§3) The plasma samples were diluted appropriately with pooled normal rabbit plasma prior to assay. […] Levels of the biotinylated probe were measured by using a sensitive enzyme based detection system, avidin-HRP, and a […] that provided a colorimetric endpoint.

[2] = Plasma peptide levels (EIA) after a single intravenous bolus in conscious rabbits; conditions: male, New Zealand White, in vivo, 30 ug/kg, rabbit, single iv bolus 30 μg/kg, n = 4
Description: as §1, §2, §3

plasma cyclic GMP [3] = experiment: Plasma cyclic GMP during dose-escalating continuous intravenous infusion in conscious rabbits; format: in vivo; conditions: rabbit; for Mean Plasma Cyclic GMP ± SD: n = 6
Description: as §1, §2
(§4) Plasma cyclic GMP levels were determined by radioimmunoassay (DuPont, Boston, Mass.). […] Separation of the bound from free antigen was performed using a pre-reacted primary and secondary antibody complex. Prior to the assay, the plasma samples were extracted with ethanol and the supernate evaporated to dryness in a speed vac concentrator (Savant Instruments, Holbrook, N.Y.). The dried samples were reconstituted with sodium acetate buffer. Plasma cyclic GMP levels were determined by interpolation from the standard curve (0.01 to 10 pmol/mL).

plasma cyclic GMP [4] = experiment: Plasma cyclic GMP after a single intravenous bolus in conscious rabbits; format: in vivo; conditions: rabbit, single iv bolus 30 μg/kg, n = 4
Description: as §1, §2, §4

Structure (SMILES): CC[C@H](C)[C@@H]1NC(=O)[C@H](CCCNC(=N)N)NC(=O)[C@H](CC(=O)O)NC(=O)[C@H](CCSC)NC(=O)[C@H](CCCCN)NC(=O)[C@H](CCCNC(=N)N)NC(=O)CNC(=O)[C@H](Cc2ccccc2)NC(=O)[C@@H](NC(=O)CNC(=O)[C@H](CO)NC(=O)CNC(=O)[C@H](CCC(N)=O)NC(=O)[C@@H](NC(=O)[C@H](CCSC)NC(=O)[C@H](CCCCN)NC(=O)[C@@H]2CCCN2C(=O)[C@@H](N)CO)C(C)C)CSSC[C@@H](C(=O)N[C@@H](CCCCN)C(=O)N[C@H](C(=O)N[C@@H](CC(C)C)C(=O)N[C@@H](CCCNC(=N)N)C(=O)N[C@@H](CCCNC(=N)N)C(=O)N[C@@H](Cc2c[nH]cn2)C(=O)O)C(C)C)NC(=O)CNC(=O)[C@H](CC(C)C)NC(=O)CNC(=O)[C@H](CO)NC(=O)[C@H](CO)NC(=O)[C@H](CO)NC(=O)[C@H](CO)NC1=O [hBNP, Ser^1-Pro^2-Lys^3-Met^4-Val^5-Gln^6-Gly^7-Ser^8-Gly^9-Cys^10-Phe^11-Gly^12-Arg^13-Lys^14-Met^15-Asp^16-Arg^17-Ile^18-Ser^19-Ser^20-Ser^21-Ser^22-Gly^23-Leu^24-Gly^25-Cys^26-Lys^27-Val^28-Leu^29-Arg^30-Lys^31-His^32]
- level at 50 min ([1]; male, New Zealand White, plasma, 0.05 ug/kg/min, iv infusion 0.05 μg/kg/min, 50 min, N = 6): 1.39 ng/mL
- level at 55 min ([1]; male, New Zealand White, plasma, 0.05 ug/kg/min, iv infusion 0.05 μg/kg/min, 55 min, N = 6): 1.28 ng/mL
- level at 1 h ([1]; male, New Zealand White, plasma, 0.05 ug/kg/min, iv infusion 0.05 μg/kg/min, 60 min, N = 6): 1.29 ng/mL
- level at 110 min ([1]; male, New Zealand White, plasma, 0.1 ug/kg/min, iv infusion 0.1 μg/kg/min, 110 min, N = 6): 3.85 ng/mL
- level at 115 min ([1]; male, New Zealand White, plasma, 0.1 ug/kg/min, iv infusion 0.1 μg/kg/min, 115 min, N = 6): 3.7 ng/mL
- level at 2 h ([1]; male, New Zealand White, plasma, 0.1 ug/kg/min, iv infusion 0.1 μg/kg/min, 120 min, N = 6): 2.75 ng/mL
- level at 170 min ([1]; male, New Zealand White, plasma, 0.2 ug/kg/min, iv infusion 0.2 μg/kg/min, 170 min, N = 6): 7.4 ng/mL
- level at 175 min ([1]; male, New Zealand White, plasma, 0.2 ug/kg/min, iv infusion 0.2 μg/kg/min, 175 min, N = 6): 8.07 ng/mL
- level at 3 h ([1]; male, New Zealand White, plasma, 0.2 ug/kg/min, iv infusion 0.2 μg/kg/min, 180 min, N = 6): 6.59 ng/mL
- level at 0 h ([1]; male, New Zealand White, plasma, iv, 0 ug/kg/min, 0 μg/kg/min (before infusion), 0 min, N = 6): 0.146 ng/mL
- level at -20 min ([1]; male, New Zealand White, plasma, iv, 0 ug/kg/min, 0 μg/kg/min (before infusion), −20 min, N = 6): 0.166 ng/mL
- Plasma steady state concentration ([1]; infusion rate 0.05 μg/kg/min): 1319 ± 615 pg/mL
- Plasma steady state concentration ([1]; infusion rate 0.1 μg/kg/min): 3434 ± 952 pg/mL
- Plasma steady state concentration ([1]; infusion rate 0.2 μg/kg/min): 7357 ± 1569 pg/mL
- level at 5 min ([2]; 5 min): 50.1 ng/mL
- level at 10 min ([2]; 10 min): 12 ng/mL
- level at […] ([2]; 15 min): 4.67 ng/mL
- level at 0.5 h ([2]; 30 min): 1.21 ng/mL
- level at 1 h ([2]; 60 min): 0.122 ng/mL
- level at […] ([2]; 90 min): 0.051 ng/mL
- Mean Plasma Cyclic GMP ± SD (plasma cyclic GMP [3]; 0 μg/kg/min (saline), 0 min): 30 ± 16 pmol/mL
- Mean Plasma Cyclic GMP ± SD (plasma cyclic GMP [3]; 0 μg/kg/min (saline), −20 min): 34 ± 15 pmol/mL
- Change of plasma cyclic GMP during continuous infusion (plasma cyclic GMP [3]; 0.05, 0.1, 0.2 μg/kg/min, in words): dose-related increase in plasma cyclic GMP
- Mean Plasma Cyclic GMP ± SD (plasma cyclic GMP [3]; iv infusion 0.05 μg/kg/min, 50 min): 68 ± 33 pmol/mL
- Mean Plasma Cyclic GMP ± SD (plasma cyclic GMP [3]; iv infusion 0.05 μg/kg/min, 55 min): 87 ± 29 pmol/mL
- Mean Plasma Cyclic GMP ± SD (plasma cyclic GMP [3]; iv infusion 0.05 μg/kg/min, 60 min): 92 ± 34 pmol/mL
- Mean Plasma Cyclic GMP ± SD (plasma cyclic GMP [3]; iv infusion 0.1 μg/kg/min, 110 min): 131 ± 38 pmol/mL
- Mean Plasma Cyclic GMP ± SD (plasma cyclic GMP [3]; iv infusion 0.1 μg/kg/min, 115 min): 122 ± 35 pmol/mL
- Mean Plasma Cyclic GMP ± SD (plasma cyclic GMP [3]; iv infusion 0.1 μg/kg/min, 120 min): 125 ± 27 pmol/mL
- Mean Plasma Cyclic GMP ± SD (plasma cyclic GMP [3]; iv infusion 0.2 μg/kg/min, 170 min): 159 ± 37 pmol/mL
- Mean Plasma Cyclic GMP ± SD (plasma cyclic GMP [3]; iv infusion 0.2 μg/kg/min, 175 min): 170 ± 43 pmol/mL
- Mean Plasma Cyclic GMP ± SD (plasma cyclic GMP [3]; iv infusion 0.2 μg/kg/min, 180 min): 145 ± 31 pmol/mL
- Plasma Cyclic GMP (plasma cyclic GMP [4]; 0 min (before dosing)): 47 pmol/mL
- Plasma Cyclic GMP (plasma cyclic GMP [4]; 5 min): 201* pmol/mL
- Plasma Cyclic GMP (plasma cyclic GMP [4]; 10 min): 214* pmol/mL
- Plasma Cyclic GMP (plasma cyclic GMP [4]; 15 min): 189* pmol/mL
- Plasma Cyclic GMP (plasma cyclic GMP [4]; 30 min): 146 pmol/mL
- Plasma Cyclic GMP (plasma cyclic GMP [4]; 60 min): 65 pmol/mL
- Plasma Cyclic GMP (plasma cyclic GMP [4]; 90 min): 40 pmol/mL
- Plasma Cyclic GMP (plasma cyclic GMP [4]; −20 min (before dosing)): 46 pmol/mL
